Measured values from patent US8623859B2, “Bradykinin B1 antagonists” (Evotec AG, priority 2008, dated 2014).
Structures can show the parent of a compound that is named as a salt. Each block holds one compound with its values, some of them ahead of it.

Target: T1, human B1 (Homo sapiens, UniProt P46663)
T1 construct: host or cells: CHO-K1
T1 sequence (P46663 1-353): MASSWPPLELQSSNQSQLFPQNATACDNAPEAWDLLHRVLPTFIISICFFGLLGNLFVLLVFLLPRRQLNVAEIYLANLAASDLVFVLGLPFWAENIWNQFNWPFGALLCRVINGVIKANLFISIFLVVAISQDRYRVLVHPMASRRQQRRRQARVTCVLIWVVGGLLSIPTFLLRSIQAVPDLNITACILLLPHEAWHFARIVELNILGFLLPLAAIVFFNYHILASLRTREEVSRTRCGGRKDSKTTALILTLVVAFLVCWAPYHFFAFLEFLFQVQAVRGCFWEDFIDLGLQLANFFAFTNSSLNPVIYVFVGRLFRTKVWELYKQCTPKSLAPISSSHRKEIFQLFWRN
Test: Calcium flux assay for Bradykinin B1 antagonist, CHO-K1 cell line expressing human B1
Type: cell-based
Settings: CHO-K1 cells expressing human B1, agonist Lys-(Des-Arg)-Bradykinin, read-out: Potency (IC50 value against human B1)
Procedure, shortened: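 CHO-K1 cells expressing human B1, loaded with 5 μM Fluo-4AM (2 h, 37° C) in HEPES buffer pH 7.4 with probenecid and 0.1% BSA, were preincubated 30 min at 25° C with compound (8 concentrations, triplicate, 1% DMSO) before B1 agonist addition. Ca2+ fluorescence monitored at 538 nm; background-normalized integrated values plotted against log antagonist concentration.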

Compound: COc1cc(C)c(S(=O)(=O)N(C)Cc2nc(C(=O)N3CCN(C4CCN(C)CC4)CC3)co2)c(C)c1 [Ex 66, 4-Methoxy-N,2,6-trimethyl-N-[(4-{[4-(1-methylpiperidin-4-yl)piperazin-1-yl]carbonyl}-1,3-oxazol-2-yl)methyl]benzenesulfonamide]
- IC50: 10 to 100 nM

Compound: COc1cc(C)c(S(=O)(=O)N(Cc2noc(C(=O)N(C)Cc3nc(CN4CCCC4)cs3)n2)C2CC2)c(C)c1 [Ex 307, 3-({Cyclopropyl[(4-methoxy-2,6-dimethylphenyl)sulfonyl]amino}methyl)-N-methyl-N-{[4-(pyrrolidin-1-ylmethyl)-1,3-thiazol-2-yl]methyl}-1,2,4-oxadiazole-5-carboxamide trifluoroacetate]
- IC50: 10 to 100 nM

Compound: Cc1cccc(Cl)c1S(=O)(=O)N(Cc1nc(C(=O)N(C)CCc2ccc(C3=NCCN3)cc2)co1)C1CC1 [Ex 219, 2-({[(2-Chloro-6-methylphenyl)sulfonyl](cyclopropyl)amino}methyl)-N-{2-[4-(4,5-dihydro-1H-imidazol-2-yl)phenyl]ethyl}-N-methyl-1,3-oxazole-4-carboxamide trifluoroacetate]
- IC50: 10 to 100 nM

Compound: COc1cc(C)c(S(=O)(=O)N(Cc2cc(C(=O)NCCc3ccc(C4=NCCN4)cc3)co2)C2CC2)c(C)c1 [Ex 52, 5-({Cyclopropyl[(4-methoxy-2,6-dimethylphenyl)sulfonyl]amino}methyl)-N-{2-[4-(4,5-dihydro-1H-imidazol-2-yl)phenyl]ethyl}furan-3-carboxamide]
- IC50: < 10 nM

Compound: COc1cc(C)c(S(=O)(=O)N(C)Cc2nc(C(=O)N(C)Cc3ccc(C4=NCCN4)cc3)co2)c(C)c1 [Ex 70, N-[4-(4,5-dihydro-1H-imidazol-2-yl)benzyl]-2-({[(4-methoxy-2,6-dimethylphenyl)sulfonyl](methyl)amino}methyl)-N-methyl-1,3-oxazole-4-carboxamide]
- IC50: < 10 nM

Compound: COc1cc(C)c(S(=O)(=O)N(Cc2nc(C(=O)N3CCN(CCCN(C)C)CC3)co2)C2CC2)c(C)c1 [Ex 196, N-Cyclopropyl-N-{[4-({4-[3-(dimethylamino)propyl]piperazin-1-yl}carbonyl)-1,3-oxazol-2-yl]methyl}-4-methoxy-2,6-dimethylbenzenesulfonamide trifluoroacetate]
- IC50: < 10 nM

Compound: COc1cc(C)c(S(=O)(=O)N(C)Cc2nnc(C(=O)N3CCN(CC4CCN(C(C)C)CC4)CC3)o2)c(C)c1 [Ex 264, 4-Methoxy-N,2,6-trimethyl-N-({5-[(4-{[1-(1-methylethyl)piperidin-4-yl]methyl}piperazin-1-yl)carbonyl]-1,3,4-oxadiazol-2-yl}methyl)benzenesulfonamide trifluoroacetate]
- IC50: 100 to 1000 nM

Continued, values first:

- IC50: 10 to 100 nM
Compound: COc1cc(C)c(S(=O)(=O)N(Cc2cc(C(=O)N(C)Cc3ccc(CN4CCC(OC)CC4)cc3)co2)C2CC2)c(C)c1 [Ex 143, 5-({Cyclopropyl[(4-methoxy-2,6-dimethylphenyl)sulfonyl]amino}methyl)-N-{4-[(4-methoxypiperidin-1-yl)methyl]benzyl}-N-methylfuran-3-carboxamide]

- IC50: < 10 nM
Compound: COc1cc(C)c(S(=O)(=O)N(Cc2nc(C(=O)N(C)Cc3ccc(CN4CCC(C(=O)N(C)C)C4)cc3)co2)C2CC2)c(C)c1 (stereo not shown) [Ex 186, 2-({Cyclopropyl[(4-methoxy-2,6-dimethylphenyl)sulfonyl]amino}methyl)-N-(4-{[3-(dimethylcarbamoyl)pyrrolidin-1-yl]methyl}benzyl)-N-methyl-1,3-oxazole-4-carboxamide]

- IC50: 10 to 100 nM
Compound: COc1cc(C)c(S(=O)(=O)N(C)Cc2cc(C(=O)N(C)Cc3ccc(CN4CCCC4)c(F)c3)co2)c(C)c1 [Ex 157, N-[3-Fluoro-4-(pyrrolidin-1-ylmethyl)benzyl]-5-({[(4-methoxy-2,6-dimethylphenyl)sulfonyl](methyl)amino}methyl)-N-methylfuran-3-carboxamide trifluoroacetate]
